Experimental data published in ChEMBL document CHEMBL3991601, “The target landscape of clinical kinase drugs” (Science, 2017).
Active and inactive are the calls of the source. For most assays here, no stated cut-off is given here; in the data, actives have a measured Kd and inactives only a lower limit.

Tests used:
[1] = molecular target: T1, Receptor-type tyrosine-protein kinase FLT3 (Homo sapiens, UniProt P36888)
T1 sequence (P36888 whole entry): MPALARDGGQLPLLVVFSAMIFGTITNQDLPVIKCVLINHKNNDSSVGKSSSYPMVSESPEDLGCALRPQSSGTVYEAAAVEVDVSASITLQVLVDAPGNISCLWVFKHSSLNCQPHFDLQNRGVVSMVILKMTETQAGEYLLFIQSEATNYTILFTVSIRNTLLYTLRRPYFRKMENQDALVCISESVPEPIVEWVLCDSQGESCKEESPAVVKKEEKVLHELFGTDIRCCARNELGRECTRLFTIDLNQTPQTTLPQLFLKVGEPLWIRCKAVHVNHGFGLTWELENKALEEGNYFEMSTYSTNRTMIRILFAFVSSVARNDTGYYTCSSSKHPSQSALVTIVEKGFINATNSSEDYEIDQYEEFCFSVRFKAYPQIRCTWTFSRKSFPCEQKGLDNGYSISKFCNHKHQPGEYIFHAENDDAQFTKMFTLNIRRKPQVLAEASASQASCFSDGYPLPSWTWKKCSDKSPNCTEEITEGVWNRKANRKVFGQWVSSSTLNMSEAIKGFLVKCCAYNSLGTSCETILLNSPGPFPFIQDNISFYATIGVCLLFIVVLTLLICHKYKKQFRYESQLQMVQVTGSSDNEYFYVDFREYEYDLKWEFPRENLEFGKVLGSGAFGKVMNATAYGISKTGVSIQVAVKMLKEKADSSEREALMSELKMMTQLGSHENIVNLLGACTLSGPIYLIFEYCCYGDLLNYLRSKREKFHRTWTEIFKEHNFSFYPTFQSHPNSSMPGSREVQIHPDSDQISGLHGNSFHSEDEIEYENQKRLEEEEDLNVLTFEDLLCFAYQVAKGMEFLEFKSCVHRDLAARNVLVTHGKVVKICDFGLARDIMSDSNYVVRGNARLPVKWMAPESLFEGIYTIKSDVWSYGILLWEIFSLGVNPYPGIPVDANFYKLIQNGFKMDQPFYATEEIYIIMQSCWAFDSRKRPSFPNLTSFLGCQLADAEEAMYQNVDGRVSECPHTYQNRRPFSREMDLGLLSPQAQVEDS

[2] = molecular target: Serine/threonine-protein kinase N1 (Homo sapiens, UniProt Q16512)
[3] = molecular target: T2, Serine/threonine-protein kinase 3 (Homo sapiens, UniProt Q13188)
T2 sequence (Q13188 whole entry): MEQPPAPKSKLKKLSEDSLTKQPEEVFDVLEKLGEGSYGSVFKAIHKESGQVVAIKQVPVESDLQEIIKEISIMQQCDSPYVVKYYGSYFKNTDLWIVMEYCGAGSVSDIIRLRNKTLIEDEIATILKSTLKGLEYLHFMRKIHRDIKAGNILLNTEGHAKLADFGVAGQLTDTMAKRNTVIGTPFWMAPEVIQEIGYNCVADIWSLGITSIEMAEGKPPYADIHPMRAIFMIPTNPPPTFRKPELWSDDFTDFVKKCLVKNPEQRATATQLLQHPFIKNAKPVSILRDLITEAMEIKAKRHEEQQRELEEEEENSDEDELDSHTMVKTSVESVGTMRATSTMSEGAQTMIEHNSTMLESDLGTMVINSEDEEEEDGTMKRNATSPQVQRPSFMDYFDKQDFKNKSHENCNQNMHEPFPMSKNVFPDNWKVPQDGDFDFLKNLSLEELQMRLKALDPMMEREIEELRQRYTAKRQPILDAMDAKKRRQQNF

[4] = molecular target: NADH dehydrogenase [ubiquinone] 1 alpha subcomplex subunit 13 (Homo sapiens, UniProt Q9P0J0)
[5] = molecular target: Non-receptor tyrosine-protein kinase TYK2 (Homo sapiens, UniProt P29597)
[6] = molecular target: Chromodomain-helicase-DNA-binding protein 4 (Homo sapiens, UniProt Q14839)
[7] = molecular target: T3, Serine/threonine-protein kinase D2 (Homo sapiens, UniProt Q9BZL6)
T3 sequence (Q9BZL6 whole entry): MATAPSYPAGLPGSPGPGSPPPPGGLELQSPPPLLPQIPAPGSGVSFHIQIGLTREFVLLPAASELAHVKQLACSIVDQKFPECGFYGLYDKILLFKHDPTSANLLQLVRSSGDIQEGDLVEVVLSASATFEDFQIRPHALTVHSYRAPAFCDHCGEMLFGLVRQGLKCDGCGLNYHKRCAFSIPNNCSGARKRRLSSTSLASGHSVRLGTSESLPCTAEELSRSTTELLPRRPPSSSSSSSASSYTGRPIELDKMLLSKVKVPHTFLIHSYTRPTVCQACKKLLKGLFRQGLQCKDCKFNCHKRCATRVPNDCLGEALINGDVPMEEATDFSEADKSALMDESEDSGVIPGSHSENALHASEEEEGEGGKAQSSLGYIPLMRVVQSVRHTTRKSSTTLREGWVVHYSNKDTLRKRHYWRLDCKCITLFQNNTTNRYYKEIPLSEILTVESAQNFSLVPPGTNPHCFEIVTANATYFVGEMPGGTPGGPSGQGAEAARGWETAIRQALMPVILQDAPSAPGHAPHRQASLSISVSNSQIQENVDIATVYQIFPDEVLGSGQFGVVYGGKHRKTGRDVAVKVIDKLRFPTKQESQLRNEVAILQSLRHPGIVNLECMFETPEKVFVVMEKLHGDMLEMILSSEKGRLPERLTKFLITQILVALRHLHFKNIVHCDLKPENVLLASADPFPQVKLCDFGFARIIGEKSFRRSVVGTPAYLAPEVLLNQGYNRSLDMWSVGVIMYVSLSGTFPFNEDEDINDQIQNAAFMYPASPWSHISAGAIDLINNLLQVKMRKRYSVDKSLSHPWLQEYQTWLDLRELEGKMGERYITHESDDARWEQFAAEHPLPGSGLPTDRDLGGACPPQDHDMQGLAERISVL

[8] = molecular target: cAMP-dependent protein kinase catalytic subunit beta (Homo sapiens, UniProt P22694)

Non-receptor tyrosine-protein kinase TYK2, sequence (P29597 whole entry): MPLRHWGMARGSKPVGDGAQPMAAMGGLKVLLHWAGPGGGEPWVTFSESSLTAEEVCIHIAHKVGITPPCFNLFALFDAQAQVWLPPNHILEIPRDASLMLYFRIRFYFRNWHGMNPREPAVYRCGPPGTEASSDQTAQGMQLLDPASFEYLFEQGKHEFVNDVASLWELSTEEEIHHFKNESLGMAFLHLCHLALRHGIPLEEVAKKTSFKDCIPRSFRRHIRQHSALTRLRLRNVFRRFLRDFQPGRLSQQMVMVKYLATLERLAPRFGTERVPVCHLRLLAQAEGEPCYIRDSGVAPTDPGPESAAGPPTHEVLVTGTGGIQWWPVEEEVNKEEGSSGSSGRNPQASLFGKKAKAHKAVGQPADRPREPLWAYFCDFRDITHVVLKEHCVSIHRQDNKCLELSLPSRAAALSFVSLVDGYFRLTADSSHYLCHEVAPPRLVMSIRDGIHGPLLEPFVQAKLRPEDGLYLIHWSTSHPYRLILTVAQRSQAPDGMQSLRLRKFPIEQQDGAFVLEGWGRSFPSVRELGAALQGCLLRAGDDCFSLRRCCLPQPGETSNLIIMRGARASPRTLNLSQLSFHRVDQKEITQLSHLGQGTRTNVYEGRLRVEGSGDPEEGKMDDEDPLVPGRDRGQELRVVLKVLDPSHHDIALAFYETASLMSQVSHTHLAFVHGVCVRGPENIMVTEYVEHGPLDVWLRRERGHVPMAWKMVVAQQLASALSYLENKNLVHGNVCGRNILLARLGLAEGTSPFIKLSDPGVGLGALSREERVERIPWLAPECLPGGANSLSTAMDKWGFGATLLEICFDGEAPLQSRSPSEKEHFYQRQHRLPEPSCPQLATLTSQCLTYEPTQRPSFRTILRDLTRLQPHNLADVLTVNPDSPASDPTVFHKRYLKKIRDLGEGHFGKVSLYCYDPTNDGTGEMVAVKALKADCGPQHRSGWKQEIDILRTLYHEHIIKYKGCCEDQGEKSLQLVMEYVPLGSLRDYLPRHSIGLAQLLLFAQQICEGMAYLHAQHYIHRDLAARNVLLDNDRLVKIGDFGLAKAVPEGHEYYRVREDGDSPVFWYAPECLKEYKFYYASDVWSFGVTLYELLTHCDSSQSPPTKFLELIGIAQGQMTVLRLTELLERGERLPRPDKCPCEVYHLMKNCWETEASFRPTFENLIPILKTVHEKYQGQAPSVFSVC
Chromodomain-helicase-DNA-binding protein 4, sequence (Q14839 whole entry): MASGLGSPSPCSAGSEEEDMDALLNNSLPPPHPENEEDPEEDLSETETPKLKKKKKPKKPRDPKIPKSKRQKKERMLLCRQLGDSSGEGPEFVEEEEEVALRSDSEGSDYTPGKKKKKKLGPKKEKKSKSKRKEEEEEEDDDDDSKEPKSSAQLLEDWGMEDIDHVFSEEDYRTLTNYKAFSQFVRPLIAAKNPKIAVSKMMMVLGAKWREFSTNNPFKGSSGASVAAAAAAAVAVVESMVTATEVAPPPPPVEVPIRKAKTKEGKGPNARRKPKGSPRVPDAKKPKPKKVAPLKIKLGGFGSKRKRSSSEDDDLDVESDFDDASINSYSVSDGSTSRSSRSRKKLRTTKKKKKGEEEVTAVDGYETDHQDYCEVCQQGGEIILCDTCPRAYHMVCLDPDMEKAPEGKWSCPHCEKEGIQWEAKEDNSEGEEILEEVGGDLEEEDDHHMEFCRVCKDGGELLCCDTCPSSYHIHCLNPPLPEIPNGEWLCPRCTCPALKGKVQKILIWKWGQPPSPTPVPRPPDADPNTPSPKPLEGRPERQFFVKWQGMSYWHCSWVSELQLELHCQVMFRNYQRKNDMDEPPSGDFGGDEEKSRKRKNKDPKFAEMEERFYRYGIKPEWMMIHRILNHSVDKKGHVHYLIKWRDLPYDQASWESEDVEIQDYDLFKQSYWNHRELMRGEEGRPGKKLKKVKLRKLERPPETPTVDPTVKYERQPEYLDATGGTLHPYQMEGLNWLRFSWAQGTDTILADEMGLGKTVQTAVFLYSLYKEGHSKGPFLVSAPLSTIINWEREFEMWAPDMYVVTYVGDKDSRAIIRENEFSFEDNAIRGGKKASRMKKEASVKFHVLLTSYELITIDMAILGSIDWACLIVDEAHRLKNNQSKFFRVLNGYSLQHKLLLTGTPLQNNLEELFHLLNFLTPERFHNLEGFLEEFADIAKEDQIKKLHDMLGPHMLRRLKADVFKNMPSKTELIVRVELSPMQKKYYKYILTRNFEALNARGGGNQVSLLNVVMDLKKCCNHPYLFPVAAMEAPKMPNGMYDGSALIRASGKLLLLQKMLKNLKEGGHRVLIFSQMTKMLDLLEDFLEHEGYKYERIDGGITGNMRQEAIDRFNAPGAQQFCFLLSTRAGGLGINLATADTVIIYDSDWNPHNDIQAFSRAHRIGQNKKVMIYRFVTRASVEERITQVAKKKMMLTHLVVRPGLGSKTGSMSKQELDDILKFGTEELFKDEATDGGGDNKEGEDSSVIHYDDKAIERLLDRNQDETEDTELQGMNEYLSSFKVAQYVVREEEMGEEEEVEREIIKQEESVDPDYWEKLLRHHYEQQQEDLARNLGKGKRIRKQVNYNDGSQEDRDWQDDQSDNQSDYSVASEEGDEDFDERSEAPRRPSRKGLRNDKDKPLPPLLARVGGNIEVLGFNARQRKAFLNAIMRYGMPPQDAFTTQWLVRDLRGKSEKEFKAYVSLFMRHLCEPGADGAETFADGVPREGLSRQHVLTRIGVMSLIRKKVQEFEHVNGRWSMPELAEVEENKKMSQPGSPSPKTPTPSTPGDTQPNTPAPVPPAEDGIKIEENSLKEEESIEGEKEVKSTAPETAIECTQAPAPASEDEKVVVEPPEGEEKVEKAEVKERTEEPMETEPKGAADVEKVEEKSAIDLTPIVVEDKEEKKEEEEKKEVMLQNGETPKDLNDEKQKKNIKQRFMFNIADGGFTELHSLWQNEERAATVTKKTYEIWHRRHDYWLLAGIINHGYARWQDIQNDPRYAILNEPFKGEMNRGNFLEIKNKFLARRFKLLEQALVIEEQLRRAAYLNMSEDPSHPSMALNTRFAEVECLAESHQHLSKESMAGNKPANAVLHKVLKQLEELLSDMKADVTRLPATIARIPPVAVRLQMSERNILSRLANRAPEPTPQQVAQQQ
Serine/threonine-protein kinase N1, sequence (Q16512 whole entry): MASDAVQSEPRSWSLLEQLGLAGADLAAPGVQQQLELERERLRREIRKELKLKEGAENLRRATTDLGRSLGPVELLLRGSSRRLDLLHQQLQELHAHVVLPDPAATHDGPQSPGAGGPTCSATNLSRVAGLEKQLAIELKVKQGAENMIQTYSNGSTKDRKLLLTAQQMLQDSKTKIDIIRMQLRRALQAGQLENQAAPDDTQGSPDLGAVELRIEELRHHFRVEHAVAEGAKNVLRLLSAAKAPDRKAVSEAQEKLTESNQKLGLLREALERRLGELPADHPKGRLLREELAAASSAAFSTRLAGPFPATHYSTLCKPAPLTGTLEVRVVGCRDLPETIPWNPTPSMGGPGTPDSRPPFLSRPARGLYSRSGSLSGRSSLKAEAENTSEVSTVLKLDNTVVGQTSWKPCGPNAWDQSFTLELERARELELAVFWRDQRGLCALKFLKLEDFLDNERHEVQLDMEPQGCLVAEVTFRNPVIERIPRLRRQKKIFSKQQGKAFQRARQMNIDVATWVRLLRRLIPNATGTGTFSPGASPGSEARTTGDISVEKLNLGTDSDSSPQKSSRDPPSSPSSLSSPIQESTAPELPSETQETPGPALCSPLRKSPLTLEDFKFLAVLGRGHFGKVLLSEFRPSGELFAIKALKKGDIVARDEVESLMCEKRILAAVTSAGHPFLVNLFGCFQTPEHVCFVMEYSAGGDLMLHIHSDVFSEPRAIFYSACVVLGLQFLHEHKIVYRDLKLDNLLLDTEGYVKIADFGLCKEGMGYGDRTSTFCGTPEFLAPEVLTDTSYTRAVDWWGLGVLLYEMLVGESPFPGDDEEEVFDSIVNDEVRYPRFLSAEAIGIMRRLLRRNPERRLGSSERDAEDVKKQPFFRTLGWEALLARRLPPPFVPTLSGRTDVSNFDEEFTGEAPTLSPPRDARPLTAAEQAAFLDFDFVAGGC
NADH dehydrogenase [ubiquinone] 1 alpha subcomplex subunit 13, sequence (Q9P0J0 whole entry, one chain of several): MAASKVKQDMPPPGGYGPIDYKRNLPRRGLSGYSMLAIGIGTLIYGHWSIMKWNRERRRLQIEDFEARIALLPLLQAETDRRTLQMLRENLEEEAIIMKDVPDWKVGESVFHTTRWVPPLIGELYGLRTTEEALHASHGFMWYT

Structure (SMILES) | Kd [1] | Kd [2] | Kd [3] | Kd [4] | Kd [5] | Kd [6] | Kd [7] | Kd [8]
COc1cc(CCc2cc(NC(=O)c3ccc(N4C[C@@H](C)N[C@@H](C)C4)cc3)n[nH]2)cc(OC)c1 [AZD-4547] | > 30 µM (inactive) | > 30 µM (inactive) | > 30 µM (inactive) | > 30 µM (inactive) | > 30 µM (inactive) | > 30 µM (inactive) | > 30 µM (inactive) | > 30 µM (inactive)
COCCNCc1ccc(-c2cc3nccc(Oc4ccc(NC(=S)NC(=O)Cc5ccc(F)cc5)cc4F)c3s2)nc1 [GLESATINIB] | 0.179 µM (active) | > 30 µM (inactive) | > 30 µM (inactive) | > 30 µM (inactive) | > 30 µM (inactive) | > 30 µM (inactive) | > 30 µM (inactive) | > 30 µM (inactive)
CCN1CCN(Cc2ccc(-c3cc4c(N[C@H](C)c5ccccc5)ncnc4[nH]3)cc2)CC1 [AEE-788] | > 30 µM (inactive) | > 30 µM (inactive) | > 30 µM (inactive) | > 30 µM (inactive) | > 30 µM (inactive) | > 30 µM (inactive) | > 30 µM (inactive) | > 30 µM (inactive)
CN1CC[C@@H](c2c(O)cc(O)c3c(=O)cc(-c4ccccc4Cl)oc23)[C@@H]1CO | > 30 µM (inactive) | > 30 µM (inactive) | > 30 µM (inactive) | > 30 µM (inactive) | > 30 µM (inactive) | > 30 µM (inactive) | > 30 µM (inactive) | > 30 µM (inactive)
COc1cc(OC)c(/C=C/S(=O)(=O)Cc2ccc(OC)c(NCC(=O)O)c2)c(OC)c1 [RIGOSERTIB] | > 30 µM (inactive) | > 30 µM (inactive) | > 30 µM (inactive) | > 30 µM (inactive) | > 30 µM (inactive) | > 30 µM (inactive) | > 30 µM (inactive) | > 30 µM (inactive)
CC[C@@H]1C(=O)N(C)c2cnc(Nc3ccc(C(=O)N[C@H]4CC[C@H](N5CCN(CC6CC6)CC5)CC4)cc3OC)nc2N1C(C)C [VOLASERTIB] | > 30 µM (inactive) | > 30 µM (inactive) | > 30 µM (inactive) | > 30 µM (inactive) | > 30 µM (inactive) | > 30 µM (inactive) | > 30 µM (inactive) | > 30 µM (inactive)
Cc1cc2c(F)c(Oc3ncnn4cc(OC[C@@H](C)OC(=O)[C@H](C)N)c(C)c34)ccc2[nH]1 [BRIVANIB ALANINATE] | > 30 µM (inactive) | > 30 µM (inactive) | > 30 µM (inactive) | > 30 µM (inactive) | > 30 µM (inactive) | > 30 µM (inactive) | > 30 µM (inactive) | > 30 µM (inactive)
CN1N=C(N)c2cn([C@@H]3O[C@H](COP(=O)(O)O)[C@@H](O)[C@H]3O)c3ncnc1c23 [TRICIRIBINE PHOSPHATE] | > 30 µM (inactive) | > 30 µM (inactive) | > 30 µM (inactive) | > 30 µM (inactive) | > 30 µM (inactive) | > 30 µM (inactive) | > 30 µM (inactive) | > 30 µM (inactive)
Cc1cc([C@@H](C)Nc2ccccc2C(=O)O)c2nc(N3CCOCC3)cc(=O)n2c1 [AZD-6482] | > 30 µM (inactive) | > 30 µM (inactive) | > 30 µM (inactive) | > 30 µM (inactive) | > 30 µM (inactive) | > 30 µM (inactive) | > 30 µM (inactive) | > 30 µM (inactive)
COC(=O)[C@@]1(O)C[C@H]2O[C@]1(C)n1c3ccccc3c3c4c(c5c6ccccc6n2c5c31)C(=O)NC4 [K-252A] | 0.227 µM (active) | 0.264 µM (active) | 0.043 µM (active) | > 30 µM (inactive) | > 30 µM (inactive) | > 30 µM (inactive) | 0.03 µM (active) | > 30 µM (inactive)
CCS(=O)(=O)N1CC(CC#N)(n2cc(-c3ncnc4[nH]ccc34)cn2)C1 [BARICITINIB] | > 30 µM (inactive) | 0.104 µM (active) | > 30 µM (inactive) | > 30 µM (inactive) | > 30 µM (inactive) | > 30 µM (inactive) | > 30 µM (inactive) | > 30 µM (inactive)
Cc1cc(-c2cc(O)ccc2Cl)cc2nnc(Nc3ccc(OCCN4CCCC4)cc3)nc12 | > 30 µM (inactive) | > 30 µM (inactive) | > 30 µM (inactive) | > 30 µM (inactive) | 0.0007 µM (active) | > 30 µM (inactive) | 0.003 µM (active) | > 30 µM (inactive)
Cc1c(F)cc(C(=O)NC2CC2)cc1-c1ccc(C(=O)NCC(C)(C)C)cn1 [LOSMAPIMOD] | > 30 µM (inactive) | > 30 µM (inactive) | > 30 µM (inactive) | > 30 µM (inactive) | > 30 µM (inactive) | > 30 µM (inactive) | > 30 µM (inactive) | > 30 µM (inactive)
O=C(c1ccc(F)c(F)c1Nc1ccc(I)cc1F)N1CC(O)([C@@H]2CCCCN2)C1 [COBIMETINIB] | > 30 µM (inactive) | > 30 µM (inactive) | > 30 µM (inactive) | > 30 µM (inactive) | > 30 µM (inactive) | > 30 µM (inactive) | > 30 µM (inactive) | > 30 µM (inactive)
COc1cc(N2CCC(N3CCN(C)CC3)CC2)ccc1Nc1ncnc(Nc2ccccc2S(=O)(=O)C(C)C)n1 [ASP-3026] | 0.627 µM (active) | > 30 µM (inactive) | > 30 µM (inactive) | > 30 µM (inactive) | > 30 µM (inactive) | > 30 µM (inactive) | 2.67 µM (active) | > 30 µM (inactive)
O=c1sn(-c2cccc3ccccc23)c(=O)n1Cc1ccccc1 [TIDEGLUSIB] | > 30 µM (inactive) | > 30 µM (inactive) | > 30 µM (inactive) | > 30 µM (inactive) | > 30 µM (inactive) | > 30 µM (inactive) | > 30 µM (inactive) | > 30 µM (inactive)
Cc1ccc(S(=O)(=O)Nc2nc3ccccc3nc2Nc2ccc3nsnc3c2)cc1 | > 30 µM (inactive) | > 30 µM (inactive) | > 30 µM (inactive) | > 30 µM (inactive) | > 30 µM (inactive) | > 30 µM (inactive) | > 30 µM (inactive) | > 30 µM (inactive)
